“Also recorded” adds a separate entry of the source. Read-outs that look alike come from different tables or passages of the source.
Tests used:
[1] = tested on: hGAT‐3; conditions: cited from earlier work
[2] = target: T1, human butyrylcholinesterase (hBuChE) (Homo sapiens, UniProt P06276); test: biochemical; conditions: inhibitor concentration 1 μM; read-out: hBuChE % inh.
T1 construct: from human plasma was from Vivonics (Bedford, MA, USA); purchased Vivonics (Bedford, MA, USA); host or cells: human plasma
T1 sequence (P06276 29-602): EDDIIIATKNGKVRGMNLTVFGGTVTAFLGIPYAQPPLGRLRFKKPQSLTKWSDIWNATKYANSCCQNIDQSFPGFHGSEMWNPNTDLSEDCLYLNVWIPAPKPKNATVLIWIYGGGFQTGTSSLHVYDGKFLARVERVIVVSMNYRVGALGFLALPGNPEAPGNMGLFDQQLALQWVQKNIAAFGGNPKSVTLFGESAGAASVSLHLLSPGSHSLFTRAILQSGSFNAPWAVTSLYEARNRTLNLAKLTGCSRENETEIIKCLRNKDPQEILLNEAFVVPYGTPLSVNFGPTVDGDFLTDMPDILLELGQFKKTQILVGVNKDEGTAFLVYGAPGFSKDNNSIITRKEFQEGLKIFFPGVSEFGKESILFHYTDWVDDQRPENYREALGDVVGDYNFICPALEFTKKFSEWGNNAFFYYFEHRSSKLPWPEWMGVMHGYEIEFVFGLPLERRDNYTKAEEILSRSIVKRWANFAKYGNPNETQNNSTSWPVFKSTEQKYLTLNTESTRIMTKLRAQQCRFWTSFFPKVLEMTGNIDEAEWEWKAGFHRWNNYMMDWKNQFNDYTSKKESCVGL

[3] = tested on: mice treated with scopolamine; test: Passive avoidance (PA) task, scopolamine-induced amnesia; format: in vivo; conditions: mouse, in vivo
Method: Animals and housing conditions
In all pharmacodynamic in vivo experiments, except for the Barnes maze (BM) task, adult male Albino Swiss (CD-1) mice weighing between 18 and 22 g and purchased from the Animal Breeding Farm of the Faculty of Pharmacy, Jagiellonian University Medical College were used. In BM task, C57BL/6J mice of the same weight (Animalab, Poland) were used.
Animals were housed in cages (10 mice per cage) at a constant temperature of 22 ± 2 °C, humidity of 55 ± 10%, and a light/dark (12:12) cycle (lights on at 7 AM). Before the experiments, the animals had unlimited access to food and water. Specified conditions for the maintenance of mice were ensured throughout the experiments, including tree bedding (Transwior, Poland) and cage enrichment (tunnels, nesting material, wooden igloos, etc.). […]
doses for behavioral assays. Lower doses were also assessed if at least one of them was […]
On the first day, during the acquisition trial (a conditioning phase), the test compound 6, scopolamine, and vehicle were injected. […] The latency between opening the guillotine gate and the mouse entering the black compartment was measured for each mouse. On the next day, during the retention (drug-off) trial, the mice were placed again into the white compartment for a 30-s habituation period, and the latency to enter the black compartment was measured for each mouse. […]

[4] = tested on: BuChE; conditions: 1 or 5 µM compound (printed '1 or 5 M'), vs DMSO

COc1ccc(C(OCCN2CCC[C@H](C(=O)O)C2)(c2ccc(OC)cc2)c2ccc(OC)cc2)cc1 [(S)‐SNAP‐5114, reference compound]
IC50 [1]: 45 µM

O=C(CC(c1ccccc1)c1ccccc1)N[C@@H](Cc1ccccc1)[C@@H](O)CNCc1ccccc1 [Compound I]
inhibition at 1 µM [2]: 67.7%
pro-cognitive effect in passive avoidance task [3]: did not observe pro‐cognitive effects; also recorded: non active
IC50 ([1]; earlier screening): 3 µM

Nc1c2c(nc3ccccc13)CCCC2 [Tacrine, reference compound]
Melting temperature (Tm) of BuChE [4]: increased Tm of BuChE

From publication PMC11796312, “Multifunctional, Fluorene‐Based Modulator of Cholinergic and GABAergic Neurotransmission as a Novel Drug Candidate for Palliative Treatment of Alzheimer's Disease” (Angewandte Chemie (International Ed. in English), 2024)
